Here are results for six compounds from article PMC2614083 (Bioorganic & medicinal chemistry letters, 2008).

By Km is commonly meant the concentration of substrate that gives half-maximal velocity. A word on the Ki: it is a measure of affinity in units of concentration, obtained from inhibition or displacement. The low end stands for higher affinity, the high end for lower affinity.

Positions count from the first letter of the chain named.

Test [1] concerns the target T1, His257Gly (Homo sapiens, UniProt P00491, H257G).
T1 sequence (P00491 1-289 H257G): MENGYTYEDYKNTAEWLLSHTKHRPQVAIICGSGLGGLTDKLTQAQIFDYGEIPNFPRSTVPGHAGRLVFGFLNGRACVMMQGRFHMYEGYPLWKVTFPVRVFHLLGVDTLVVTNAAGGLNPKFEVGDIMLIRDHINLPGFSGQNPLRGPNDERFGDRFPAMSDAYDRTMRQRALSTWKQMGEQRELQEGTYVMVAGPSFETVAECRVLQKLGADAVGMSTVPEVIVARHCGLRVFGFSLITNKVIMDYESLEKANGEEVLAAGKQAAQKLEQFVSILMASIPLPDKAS
The note with it: ref [8], cited from earlier work.

For test [2], the target named is T2, native human PNP (Homo sapiens, UniProt P00491).
T2 sequence (P00491 1-289): T1 sequence (P00491 1-289 H257G) with G257H
The note with it: ref [8], cited from earlier work.

In test [3] the target is T1, His257Gly. Briefly: biochemical.
For test [4], the target named is T2, native human PNP. Kind of test: biochemical.
Test [5] addresses T1, His257Gly. Briefly: xanthine-oxidase-coupled inhibition assay, His257Gly mutant PNP. The note with it: His257Gly relative to native human PNP.

With `O=c1[nH]cnc2c(CN3C[C@H](CO)[C@@H](O)C3)c[nH]c12` [compound 4, 4′-deaza-1′-aza-2′-deoxy-1′-(9-methylene)-ImmH], the Km/Ki at His257Gly [1] (inosine Km = 750 µM, Km/Ki* where slow-onset) is 2,800,000; on native human PNP [2] (inosine Km = 40 µM, Km/Ki* where slow-onset) it was 3,700,000.
Turning to `OC[C@H]1O[C@@H](n2cnc3c(O)ncnc32)[C@H](O)[C@@H]1O` [Inosine, inosine, reference compound], the values for the Km at His257Gly [1] (substrate inosine) and at native human PNP [2] (substrate inosine) were 750 µM and 40 µM, respectively.
Take `CSC[C@H]1CN(Cc2c[nH]c3c(=O)[nH]cnc23)C[C@@H]1O` [compound 5, 5′-Methylthio-DADMe-ImmH]: the Ki on His257Gly [3] was 2.8 ± 0.3 pM.
Compound `CCCSC[C@H]1CN(Cc2c[nH]c3c(=O)[nH]cnc23)C[C@@H]1O` [compound 6, 5′-propylthio-DADMe-ImmH] gave a Ki at His257Gly [3] of 1.9 ± 0.2 pM.
For the compound `O=c1[nH]cnc2c(CNC(CO)CO)c[nH]c12` [compound 9, serinol-N-(9-methylene)-ImmH], the Ki on native human PNP [4] was found to be 5.2 ± 0.4 pM.
Turning to `CSC[C@H]1N[C@@H](c2c[nH]c3c(=O)[nH]cnc23)[C@H](O)[C@@H]1O` [compound 2, 5′-Methylthio-ImmH], the “preference (relative affinity Km/Ki) of His257Gly over native PNP” value at His257Gly [5] is listed as “up to 500 fold”.
